# Laboratory results: patent US9168278B2, “Use for cannabinoid” (GW Pharma Limited, priority 2004, dated 2015)
# Read-outs that look alike come from different tables or passages of the source.
# Experiments:
# [1] = test system: mouse isolated vas deferens; assay: Electrically-evoked contractions of the mouse isolated vas deferens
# Procedure: Experiments were also carried out with the mouse isolated vas deferens, a tissue in which cannabinoid receptor agonists such as R-(+)-WIN55212, CP55940, THC and 2-arachidonoyl ethanolamide (anandamide) can inhibit electrically-evoked contractions (Devane et al., 1992; Pertwee et al., 1995).
# Cannabinoid receptor agonists are thought to inhibit the electrically evoked contractions by acting on prejunctional neuronal cannabinoid CB1 receptors to inhibit release of the contractile neurotransmitters, ATP, (acting on postjunctional P2X purinoceptors), and noradrenaline, (acting on postjunctional α1-adrenoceptors), (Trendelenberg et al., 2000).
# (§1) Vasa deferentia were obtained from albino MF1 mice weighing 31 to 59 g. The tissues were mounted vertically in 4 ml organ baths. They were then subjected to electrical stimulation of progressively greater intensity followed by an equilibration procedure in which they were exposed to alternate periods of stimulation (2 min) and rest (10 min) until contractions with consistent amplitudes were obtained (Thomas et al., 2004). These contractions were monophasic and isometric and were evoked by 0.5 s trains of pulses of 110% maximal voltage (train frequency 0.1 Hz; pulse frequency 5 Hz; pulse duration 0.5 ms).
# Except in experiments with phenylephrine, all drug additions were made to the organ baths after the equilibration period and there was no washout between these additions. In most experiments there was an initial application of a potential antagonist or its vehicle. This was followed 28 min later by a 2 min period of electrical stimulation at the end of which the lowest of a series of concentrations of the twitch inhibitors, R-(+)-WIN55212, CP55940, THC, anandamide, (−)-7-hydroxy-cannabidiol-dimethylheptyl or clonidine, was applied.
# After a period of rest, the tissues were electrically stimulated for 2 min and then subjected to a further addition of twitch inhibitor.
# This cycle of drug addition, rest and 2 min stimulation was repeated so as to construct cumulative concentration-response curves. Only one concentration-response curve was constructed per tissue. Rest periods were 3 min for clonidine, 13 min for R-(+)-WIN55212, CP55940 and anandamide, 28 min for THC and THCV, and 58 min for (−)-7-hydroxy-cannabidiol-dimethylheptyl.
# Experiments were also performed with capsaicin. This drug was added at intervals of 3 min and the tissues were not rested from electrical stimulation between these additions.
# In some experiments, cumulative concentration-response curves for THCV were constructed without prior addition of any other compound, again using a cycle of drug addition, 28 min rest and 2 min stimulation.
# (§2) Inhibition of the electrically-evoked twitch response of the vas deferens has been expressed in percentage terms and this has been calculated by comparing the amplitude of the twitch response after each addition of a twitch inhibitor with its amplitude immediately before the first addition of the inhibitor. Contractile responses to phenylephrine and β,γ-methylene-ATP have been expressed as increases in tension (g).
# Values for EC50, for maximal effect (Emax) and for the s.e.mean or 95% confidence limits of these values have been calculated by nonlinear regression analysis using the equation for a sigmoid concentration-response curve (GraphPad Prism).
# (§3) The apparent dissociation constant (KB) values for antagonism of agonists by THCV in the vas deferens or [^35S]GTPγS binding assay have been calculated by Schild analysis from the concentration ratio, defined as the concentration of an agonist that elicits a response of a particular size in the presence of a competitive reversible antagonist at a concentration, B, divided by the concentration of the same agonist that produces an identical response in the absence of the antagonist.
# Mean values have been compared using Student's two-tailed t-test for unpaired data or one-way analysis of variance (ANOVA) followed by Dunnett's test (GraphPad Prism). […]
# [2] = test system: mouse isolated vas deferens (P2 receptor agonist β,γ-methylene-ATP); assay: Contractile responses of the vas deferens to β,γ-methylene-ATP; details: for contractions induced by β,γ-methylene-ATP: at 1 μM
# Procedure: as §1
# In experiments with β,γ-methylene-ATP, no electrical stimuli were applied after the equilibration procedure. Log concentration-response curves of β,γ-methylene-ATP were constructed cumulatively without washout. THCV, WIN or drug vehicle were added 30 min before the first addition of β,γ-methylene-ATP, each subsequent addition of which was made immediately after the effect of the previous dose had reached a plateau (dose cycles of 1 to 2 min).
# as §2
# [3] = test system: mouse isolated vas deferens (α1-adrenoceptor agonist phenylephrine hydrochloride); assay: Contractile responses of the vas deferens to phenylephrine; details: for contractions induced by phenylephrine: at 1 μM
# Procedure: as §1
# Only one addition of phenylephrine was made to each tissue and this was carried out 30 min after the addition of THCV, WIN or drug vehicle.
# as §2
# [4] = molecular target: T1, CB1 receptors (mouse brain membranes) (Mus musculus, UniProt P47746); assay: Radioligand displacement assay, mouse brain membranes; format: binding
# T1 construct: membranes prepared from healthy brain tissue, which is densely populated with CB1 but not CB2 receptors; from tissue; host or cells: mouse brain membranes
# Procedure: Experiments were performed with membranes prepared from healthy brain tissue, which is densely populated with CB1 but not CB2 receptors (reviewed in Howlett et al. 2002).
# Binding was initiated by the addition of either the brain membranes (33 μg protein per tube) or the transfected hCB2 cells (25 μg protein per tube).
# All assays were performed at 37° C. for 60 min before termination by addition of ice-cold wash buffer (50 mM Tris buffer, 1 mg ml^−1 bovine serum albumin, pH 7.4) and vacuum filtration using a 24-well sampling manifold and GF/B filters that had been soaked in wash buffer at 4° C. for at least 24 h.
# Each reaction tube was washed six times with a 1.2 ml aliquot of wash buffer. The filters were oven-dried for 60 min and then placed in 5 ml of scintillation fluid. Radioactivity was quantified by liquid scintillation spectrometry.
# Specific binding was defined as the difference between the binding that occurred in the presence and absence of 1 μM unlabelled CP55940. THCV was stored as a stock solution of 10 mM in DMSO, the vehicle concentration in all assay tubes being 0.1% DMSO.
# Values are expressed as means and variability as s.e.mean or as 95% confidence limits. […] Its dissociation constant (Ki value) was calculated using the equation of Cheng & Prusoff (1973).
# [5] = molecular target: T2, hCB2 receptors (CHO cells transfected with hCB2) (Homo sapiens, UniProt P34972); assay: Radioligand displacement assay, CHO-hCB2 cell membranes; details: Cheng & Prusoff, read-out: mean Ki, displacement of [3H]CP55940 from specific binding sites
# T2 construct: expressed in transfected cells; host or cells: CHO cells
# [6] = molecular target: T3, cannabinoid CB1 receptors (mouse brain membranes) (Mus musculus, UniProt P47746); assay: [35S]GTPγS binding assay, mouse brain membranes; format: biochemical; details: for Kb: Mean apparent KB, brain membranes, THCV 1000 nM
# T3 construct: membranes prepared from healthy brain tissue, which is densely populated with CB1 but not CB2 receptors; from tissue; host or cells: mouse brain membranes
# Procedure: (§4) The assays were carried out with GTPγS binding buffer (50 mM Tris-HCl; 50 mM Tris-Base; 5 mM MgCl2; 1 mM EDTA; 100 mM NaCl; 1 mM DTT; 0.1% BSA) in the presence of [^35S]GTPγS and GDP, in a final volume of 500 μl. Binding was initiated by the addition of [^35S]GTPγS to the tubes. Nonspecific binding was measured in the presence of 30 μM GTPγS.
# (§5) The drugs were incubated in the assay for 60 min at 30° C. The reaction was terminated by a rapid vacuum filtration method using Tris buffer (50 mM Tris-HCl; 50 mM Tris-Base; 0.1% BSA), and the radioactivity was quantified by liquid scintillation spectrometry.
# The concentrations of [^35S]GTPγS and GDP present in the assay varied depending on whether the assay was conducted with mouse brain or transfected cell membranes.
# Additionally, mouse brain membranes were preincubated for 30 minutes at 30° C. with 0.5 U ml^−1 adenosine deaminase to remove endogenous adenosine. Agonists and antagonists were stored as a stock solution of 1 or 10 mM in DMSO, the vehicle concentration in all assay tubes being 0.11% DMSO.
# as §3
# Mean values have been compared using Student's two-tailed t-test for unpaired data or one-way analysis of variance (ANOVA) followed by Dunnett's test (GraphPad Prism). A P-value <0.05 was considered to be significant.
# [7] = molecular target: T4, transfected cannabinoid CB2 receptors (CHO-hCB2 cell membranes) (Homo sapiens, UniProt P34972); assay: [35S]GTPγS binding assay, CHO-hCB2 cell membranes; format: biochemical
# T4 construct: expressed in transfected cells; host or cells: CHO cells
# Procedure: The conditions used for measuring agonist-stimulated [^35S]GTPγS binding to transfected cannabinoid CB2 receptors were adapted from those used by MacLennan et al. (1998) and Griffin et al. (1999).
# as §4, §5
# The concentrations of [^35S]GTPγS and GDP present in the assay varied depending on whether the assay was conducted with mouse brain or transfected cell membranes. […]
# Net agonist-stimulated [^35S]GTPγS binding values were calculated by subtracting basal binding values (obtained in the absence of agonist) from agonist-stimulated values (obtained in the presence of agonist) as detailed elsewhere (Ross et al., 1999a). […]
# T1 sequence (P47746 whole entry): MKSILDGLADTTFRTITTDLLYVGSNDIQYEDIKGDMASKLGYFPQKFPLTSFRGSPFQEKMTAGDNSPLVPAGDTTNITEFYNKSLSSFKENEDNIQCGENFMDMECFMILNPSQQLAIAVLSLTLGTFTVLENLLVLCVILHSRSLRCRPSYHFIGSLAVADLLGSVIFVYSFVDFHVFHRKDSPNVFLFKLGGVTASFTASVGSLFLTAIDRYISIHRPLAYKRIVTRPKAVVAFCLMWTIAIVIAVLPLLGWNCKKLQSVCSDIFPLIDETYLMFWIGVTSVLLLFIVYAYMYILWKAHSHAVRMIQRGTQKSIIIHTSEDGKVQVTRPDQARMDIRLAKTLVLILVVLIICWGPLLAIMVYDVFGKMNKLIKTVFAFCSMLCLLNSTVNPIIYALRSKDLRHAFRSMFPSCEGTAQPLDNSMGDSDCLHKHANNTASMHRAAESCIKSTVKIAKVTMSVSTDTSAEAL
# T3 sequence (P47746 whole entry): as above
# T4 sequence (P34972 whole entry): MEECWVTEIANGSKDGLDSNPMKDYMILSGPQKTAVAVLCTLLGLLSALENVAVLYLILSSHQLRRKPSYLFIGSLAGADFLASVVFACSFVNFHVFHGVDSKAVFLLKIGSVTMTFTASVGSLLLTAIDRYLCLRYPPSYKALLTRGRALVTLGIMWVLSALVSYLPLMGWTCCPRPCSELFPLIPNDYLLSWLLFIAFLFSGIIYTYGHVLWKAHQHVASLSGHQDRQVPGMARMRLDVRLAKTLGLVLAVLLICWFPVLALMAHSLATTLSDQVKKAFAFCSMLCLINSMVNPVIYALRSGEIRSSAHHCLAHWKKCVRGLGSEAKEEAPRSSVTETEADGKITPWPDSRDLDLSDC
# T2 sequence (P34972 whole entry): as above
structure (smiles),measurement,setting,value
"Cc1c(C(=O)c2cccc3ccccc23)c2cccc3c2n1[C@H](CN1CCOCC1)CO3 [R-(+)-WIN55212, reference compound]",inhibition of electrically-evoked contractions,[1]; at 1 μM,markedly attenuated
same,"contractions induced by β,γ-methylene-ATP",[2],did not decrease
same,contractions induced by phenylephrine,[3],did not decrease
"CCCc1cc(O)c2c(c1)OC(C)(C)[C@@H]1CCC(C)=C[C@@H]21 [THCV, tetrahydrocannabivarin]",EC50,"[4]; EC50, displacement of [3H]CP55940, mouse brain membranes, n=4 to 8",98.2 nM
same,EC50,"[4]; mean EC50, displacement of [3H]R-(+)-WIN55212, mouse brain membranes, n=4 to 7",61.3 nM
same,EC50,"[4]; mean EC50, displacement of [3H]SR141716A, mouse brain membranes, n=4 to 6",86.8 nM
same,Ki,"[4]; mouse brain membranes, Cheng & Prusoff, read-out: mean Ki, displacement of [3H]CP55940 from specific binding sites",75.4 nM
same,Ki,[5],62.8 nM
same,Kb,"[6]; agonist CP55940, SR141716A 10 nM",93.1 nM
same,Kb,[6]; agonist R-(+)-WIN55212,85.4 nM
same,effect by itself on [35S]GTPγS binding,"[6]; mouse brain membranes, at antagonist concentrations",did not affect
same,Kb,[7],10.1 nM
same,effect by itself on [35S]GTPγS binding,"[7]; CHO-hCB2 cell membranes, at antagonist concentrations",did not affect
same,Kb,"[1]; Mus musculus, twitch inhibitor 7-OH-CBD-DMH, THCV 100 nM, read-out: Mean apparent KB of THCV",> 100 nM
same,Kb,"[1]; Mus musculus, twitch inhibitor CP55940, THCV 100 nM, read-out: Mean apparent KB of THCV",10.3 nM
same,Kb,"[1]; Mus musculus, twitch inhibitor R-(+)-WIN55212, THCV 10-1000 nM, Tallarida method, read-out: Mean apparent KB of THCV",1.5 nM
same,Kb,"[1]; Mus musculus, twitch inhibitor THC, THCV 1000 nM, read-out: Mean apparent KB of THCV",96.7 nM
same,Kb,"[1]; Mus musculus, twitch inhibitor anandamide, THCV 10 nM, read-out: mean apparent KB for antagonism of anandamide",1.4 nM
same,Kb,"[1]; Mus musculus, twitch inhibitor anandamide, THCV 100 nM, read-out: Mean apparent KB of THCV",1.2 nM
same,Kb,"[1]; Mus musculus, twitch inhibitor capsaicin, THCV 100 nM, read-out: Mean apparent KB of THCV",> 100 nM
same,Kb,"[1]; Mus musculus, twitch inhibitor clonidine, THCV 100 nM, read-out: Mean apparent KB of THCV",> 100 nM
same,Kb,"[1]; Mus musculus, twitch inhibitor methanandamide, THCV 100 nM, read-out: Mean apparent KB of THCV",4.6 nM
same,EC50,"[1]; Mus musculus, compound alone, read-out: EC50, inhibition of electrically-evoked contractions",12700 nM
same,inhibition of electrically-evoked contractions in presence of SR141716A,"[1]; SR141716A 100 nM, n=7",not attenuated
same,concentration above which electrically-evoked contractions were inhibited,[1]; SR141716A-independent manner,above 3 μM
same,antagonism of THC-induced twitch inhibition,"[1]; THCV 100 nM, n=11",Nor did 100 nM THCV antagonize
same,inhibition of electrically-evoked contractions,[1]; at 1 μM,no detectable inhibitory effect
same,inhibition of electrically-evoked contractions,[1]; at 31.6 μM,marked inhibition
same,"contractions induced by β,γ-methylene-ATP",[2],did not induce any significant reduction
same,"contractile responses to β,γ-methylene-ATP",[2]; at 31.6 μM,attenuated
same,contractions induced by phenylephrine,[3],did not induce any significant reduction
same,contractile responses to phenylephrine hydrochloride,[3]; at 31.6 μM,attenuated
